Data as given in patent US20140076194A1, “ANTIFOULING BY ADHESION SUPPRESSION” (PURDUE RESEARCH FOUNDATION, priority 2011, published 2014).
Values belong to the compound of their own block, whether it stands above or below them.

Key:
mussel = assay: Mussel plaque adhesion to coated plates (Instron tensile pull of individual plaques); format: in vivo; parameters: Total Animal Removal Force: unit not given here; conditions: for total animal removal force (in words): Tables 4A and 4B, upon addition of antioxidant, versus DBT control; for mussel adhesion (in words): antioxidant or reducing agent in coating; for force to detach animal: estimated from number of plaques and adhesion per plaque, primer control ~5.6 N; for # of plaques (average): primer control 11.3
Description: In order to obtain insights on the antifouling potential of a given coating, we would benefit from a rapid laboratory method to quantify adhesion. Coatings that show decreased adhesion in such a laboratory test can then be sent to other investigators for assays with different organisms as well as field testing. We have recently developed a method for determining the adhesion strength of mussels to surfaces. The adhesive system of mussels lends itself well to precise force measurements. Mussels are placed on a candidate coating for adhesive deposition. The area (m^2) of each plaque is determined by digital photography and use of image analysis software. Individual plaques are then pulled from the surface using clamps in an Instron materials testing system (as illustrated in FIG. 3). […] Beyond simply looking for new antifouling coatings to decrease mussel adhesion, we also take note of the adhesive failure modes on new coatings versus controls. […] Thread breakage is also possible but minimized to nearly zero with our adhesion method. When mussels adhere strongly to a given surface, more cohesive failure is often observed or a mix of both cohesive and adhesive failure. If we inhibit curing of the glue with radical inhibitors on the surface, we may find that more adhesive or cohesive failure is observed. Overall, use of this mussel adhesion assay provides quantitative data on the ability of a candidate antifouling coating to inhibit bioadhesion. Here we will use this assay on each coating. Coatings that decrease mussel adhesion substantially will be carried on to further testing. As an operative example, the animal adheres to a given surface (e.g., aluminum plate). […] The animal is removed by cutting the connecting threads at the shell line. At this point, we are left with the surface, an adhesive plaque, and the thread. Adhesion forces must be normalized for surface contact area. Complete adhesion measurement methods includes obtaining data on the plaque-surface contact area. Mussel plaques are typically not perfect circles or ovals. The small size (approximately 2 mm diameter) and irregular shape may complicate obtaining accurate areas. Prior to adhesive testing, a photograph is taken of the plaque. A Nikon (Melville, N.Y., USA) […] digital camera fitted with a Nikon 50 mm f-1.8 lens and a Kenko 12 mm extension tube is held on a small tripod while the lens is oriented directly onto the plate below. The lens is approximately 18 cm above the plates being photographed. Typical exposure settings include f=3.5, 1/15 second shutter speed, and 200 ISO. Ambient light should be sufficient to capture the images. Photographs are taken in JPEG format at maximum resolution ( 3.3 MB per image). Individual plaques are numbered using a marker prior to taking the photograph so that the numbers are included in the image. These labels allow correlation of specific plaques to tensile strength data. At the time of photographing the plaques, area standards are also photographed. The digital images of the plates can be later revisited for calculating surface area. Image analysis software counts pixels within the plaque, relative to a standard, to provide area (m^2). […] Plates bearing plaques and threads are clamped to the base of the Instronl 5544 materials testing system. A custom designed stainless steel base is fabricated for these experiments. The base is a circular platform 15 cm in diameter with a post and pinhole on the bottom, allowing bolting into the bottom mount of the Instron. Test plates with adhesive are fastened to this base with two Quick-Grip Handi Clamps (Wilmington, Ohio, USA) holding down opposite corners. The Instron is fitted with one screw-action grip (part 2710-004) on the top and a 5N load cell. Detachment force measurements begin by lowering the grips directly over an individual plaque. The thread is lifted by hand and is placed in between the grips. The grips are then tightened over the thread. […]

[1] = Water contact angle of coatings; format: physicochemical; conditions: metal primer coating with BHT; metal primer coating alone approximately 106°
Experimental: In some cases added solvent helps the dissolution. We use the same solvent already in the commercial coating (e.g., xylenes or acetone). After curing is complete, the resulting coating is inspected and compared to the control of a similar coating without the adhesion inhibitor. If we observe a lack of curing, crystallization of inhibitors on the surface, lower coating modulus, or color changes the formulation may be discarded from consideration. Water contact angles are then measured for both the coatings and all controls (e.g., coating without inhibitor). Typically the coatings have very similar water contact angles as the controls (e.g., similar to within ˜5°). Large differences in contact angles will also lead to discarding a candidate antifouling formulation. A further narrowing of candidate coatings then takes place. We examine water contact angles (i.e., surface energy) of the evaporative coatings with an antioxidant versus without an added inhibitor. Any coatings with added inhibitor that changes water contact angle by more than 5° may be eliminated from further testing. […] It is envisioned that these modifications are not indicative of whether a particular reductive coating is an effective antifouling coating. […] As part of this selection process, we have approximately twenty (20) coatings to examine, into which we could place approximately eight (8) different antioxidants.

[2] = 2.5% additive in primer, Table 4B
[3] = 25% additive in primer, Table 4A
[4] = 25% additive in primer, Table 4C, recent data with variations versus Table 4A
[5] = Coating: 2.5% (w/w), Table 5B, FIG. 6
[6] = Coating: 25% (w/w), Table 5A, FIG. 5
[7] = primer + 2.5% BHT (w/w) coating, Table 3
[8] = primer + 25% BHT (w/w) coating, Table 3

Compound: COc1ccccc1 [anisole]
% Adhesive Failure (mussel; [2]): 21.1% | Adhesive Failure (mussel; [2]): 42.0 kPa | Mean Adhesion (mussel; [2]): 39.7 kPa | Plaques/Mussel (mussel; [2]): 20.1 | Total Animal Removal Force (mussel; [2]): 844 | % Adhesive Failure (mussel; [3]): 54% | Adhesive Failure (mussel; [3]): 56.8 kPa | Mean Adhesion (mussel; [3]): 59.1 kPa | Plaques/Mussel (mussel; [3]): 17.4 | Total Animal Removal Force (mussel; [3]): 988 | Adhesion (mussel; [4]): 33.53 kPa | Average Force (mussel; [4]): 0.1686 N | Average Adhesion (kPa) with 99% CI (mussel; [5]): 90.03 ± 8.16 kPa | Average Adhesion (kPa) with 99% CI (mussel; [6]): 75.02 ± 5.39 kPa | total animal removal force (in words) (mussel): decreases significantly | mussel adhesion (in words) (mussel): reduce mussel adhesion

Compound: CC(C)(C)c1cccc(O)c1C(C)(C)C [DTBP, 2,3-di-tert-butylphenol]
% Adhesive Failure (mussel; [2]): 17.6% | Adhesive Failure (mussel; [2]): 56.9 kPa | Mean Adhesion (mussel; [2]): 66.5 kPa | Plaques/Mussel (mussel; [2]): 30 | Total Animal Removal Force (mussel; [2]): 1707 | % Adhesive Failure (mussel; [3]): 70.7% | Adhesive Failure (mussel; [3]): 40.4 kPa | Mean Adhesion (mussel; [3]): 42.0 kPa | Plaques/Mussel (mussel; [3]): 16.9 | Total Animal Removal Force (mussel; [3]): 683 | Adhesion (mussel; [4]): 34.11 kPa | Average Force (mussel; [4]): 0.1902 N | Average Adhesion (kPa) with 99% CI (mussel; [5]): 89.88 ± 8.45 kPa | Average Adhesion (kPa) with 99% CI (mussel; [6]): 82.63 ± 5.24 kPa | total animal removal force (in words) (mussel): decreases significantly | mussel adhesion (in words) (mussel): reduce mussel adhesion

water contact angle [1]: approximately 108 °
Compound: Cc1cc(C(C)(C)C)c(O)c(C(C)(C)C)c1 [BHT, butylated hydroxytoluene]
% Adhesive Failure (mussel; [2]): 66.7% | Adhesive Failure (mussel; [2]): 41.5 kPa | Mean Adhesion (mussel; [2]): 41.5 kPa | Plaques/Mussel (mussel; [2]): 17.4 | Total Animal Removal Force (mussel; [2]): 722 | average mussel adhesion (in words) (mussel; 2.5% and 25% BHT-in-primer coatings versus primer-only controls): decreases significantly | % Adhesive Failure (mussel; [3]): 44.7% | Adhesive Failure (mussel; [3]): 37.0 kPa | Mean Adhesion (mussel; [3]): 39.5 kPa | Plaques/Mussel (mussel; [3]): 11.1 | Total Animal Removal Force (mussel; [3]): 411 | Adhesion (mussel; [4]): 37.08 kPa | Average Force (mussel; [4]): 0.1894 N | total force needed to remove a mussel (in words) (mussel; BHT in the coating, number of plaques combined with adhesion per plaque): drops by up to half | adhesive produced by the animals (in words) (mussel; BHT-containing panels versus primer-only controls): produce less adhesive | Average Adhesion (kPa) with 99% CI (mussel; [5]): 87.82 ± 4.98 kPa | Average Adhesion (kPa) with 99% CI (mussel; [6]): 90.24 ± 6.84 kPa | total animal removal force (in words) (mussel): decreases significantly | force to detach animal (mussel; [7]): ~3.4 N | # of plaques (average) (mussel; [7]): 9.6 plaques | Adhesion (mussel; primer + 2.5% BHT (w/w) coating, Table 3, primer control 184 ± 68 kPa): 135 ± 58 kPa | force to detach animal (mussel; [8]): ~2.2 N | # of plaques (average) (mussel; [8]): 5.2 plaques | Adhesion (mussel; primer + 25% BHT (w/w) coating, Table 3, primer control 184 ± 68 kPa): 110 ± 43 kPa

Compound: CC(=O)C(=O)O [pyruvic acid]
mussel adhesion (in words) (mussel): reduce mussel adhesion

Compound: CCOc1ccc2c(c1)C(C)=CC(C)(C)N2 [6-ethoxy, 6-ethoxy-1,2-dihydro-2,2,4-trimethylquinoline]
% Adhesive Failure (mussel; [2]): 90.9% | Adhesive Failure (mussel; [2]): 33.6 kPa | Mean Adhesion (mussel; [2]): 33.9 kPa | Plaques/Mussel (mussel; [2]): 22.3 | Total Animal Removal Force (mussel; [2]): 749 | % Adhesive Failure (mussel; [3]): 76.4% | Adhesive Failure (mussel; [3]): 33.7 kPa | Mean Adhesion (mussel; [3]): 34.6 kPa | Plaques/Mussel (mussel; [3]): 18.4 | Total Animal Removal Force (mussel; [3]): 620 | Adhesion (mussel; [4]): 21.23 kPa | Average Force (mussel; [4]): 0.0948 N | Average Adhesion (kPa) with 99% CI (mussel; [5]): 82.60 ± 4.42 kPa | Average Adhesion (kPa) with 99% CI (mussel; [6]): 58.22 ± 6.73 kPa | total animal removal force (in words) (mussel): decreases significantly | mussel adhesion (in words) (mussel): reduce mussel adhesion

Compound: Cc1cc(C(C)(C)C)c(C)c(C(C)(C)C)c1 [DBT, reference compound]
% Adhesive Failure (mussel; [2]): 7.0% | Adhesive Failure (mussel; [2]): 49.3 kPa | Mean Adhesion (mussel; [2]): 45.8 kPa | Plaques/Mussel (mussel; [2]): 24.1 | Total Animal Removal Force (mussel; [2]): 1430 | % Adhesive Failure (mussel; [3]): 31.6% | Adhesive Failure (mussel; [3]): 57.3 kPa | Mean Adhesion (mussel; [3]): 53.1 kPa | Plaques/Mussel (mussel; [3]): 17.2 | Total Animal Removal Force (mussel; [3]): 986 | Adhesion (mussel; [4]): 47.07 kPa | Average Force (mussel; [4]): 0.2198 N | Average Adhesion (kPa) with 99% CI (mussel; [5]): 80.31 ± 5.08 kPa | Average Adhesion (kPa) with 99% CI (mussel; [6]): 106.34 ± 6.74 kPa
